Results taken from patent US9409952B2, “Peptide-compound cyclization method” (Chugai Seiyaku Kabushiki Kaisha, priority 2011, dated 2016).
Like-named read-outs stand apart in the source and are kept apart here. Starred links: 1 amine or outer side, 2 acyl side, 3 side chain; linkers in the order of their positions; H or OH if unused. Positions of bridges follow the written chain, without caps; N, C: chain ends. Non-standard residues stand in square brackets, D forms with d. Residues, ends and D or L forms follow the SMILES beside them. *: point of attachment. NMeF = CN[C@@H](Cc1ccccc1)C(=O)O; hPhe = N[C@@H](CCc1ccccc1)C(=O)O; NMeβAla = CN(CCC(=O)[*:2])[*:1]; NMeL = CN[C@@H](CC(C)C)C(=O)O; NMeV = CN[C@H](C(=O)O)C(C)C; NMeA = CN[C@@H](C)C(=O)O; Piperidide = C1CCN(*)CC1; dNMeA = CN[C@H](C)C(=O)O; Sar = CNCC(=O)O; tBu = CC(C)(C)*

How the values were obtained:
[1] = PAMPA (parallel artificial membrane permeability assay); type: in vitro ADME; conditions: PAMPA
Method in brief: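 Artificial membrane was 10% (w/v) egg lecithin plus 0.5% (w/v) cholesterol in dodecane on a PVDF filter. A 10 mM DMSO stock was added at 0.5% (v/v) to donor buffer (50 mM MOPSO, pH 6.5, 5.0% glycocholic acid). After 18 h at 37 °C, LC/MS or LC/UV gave donor and acceptor levels for Pe.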

[2] = Metabolic stability in human hepatic microsome; type: in vitro ADME; conditions: microsomes
[3] = membrane permeation rate (Pe), 50 mM MOPSO buffer pH 6.5 with 5.0% glycocholic acid, 37° C., 18 hours, read-out: iPAMPA Pe
[4] = pH 7.4, human hepatic microsome, NADPH(+), read-out: CL NADPH(+)

| SMILES | Papp at 18 hours, 50 µM [1, 3] [×10⁻⁶ cm/s] | microsomal CLint at 1 uM [2, 4] [µL/min/mg] | Papp at 18 hours, 50 µM ([1]; pH 6.5) [×10⁻⁶ cm/s] | microsomal CLint at 1 uM ([2]; human, pH 7.4, CL NADPH(+)) [µL/min/mg] |
| --- | --- | --- | --- | --- |
| CC(C)C[C@@H]1NC(=O)[C@H](CC(C)C)N(C)C(=O)C[C@@H](C(=O)N2CCCCC2)NC(=O)[C@H](C)N(C)C(=O)[C@H](CC(C)C)N(C)C(=O)[C@H]([C@@H](C)O)NC(=O)[C@H](Cc2ccccc2)N(C)C1=O [DP-738] ([NMeL]L[NMeF]T[NMeL][NMeA]D-Piperidide; lactam N-7) | 22 | 221 | – | – |
| CC(C)C[C@@H]1NC(=O)[C@H](CC(C)C)N(C)C(=O)[C@H](C(C)C)N(C)C(=O)[C@H](C)NC(=O)CN(C)C(=O)[C@H](Cc2ccccc2)NC(=O)[C@H]([C@@H](C)O)NC(=O)[C@H](CC(C)C)N(C)C(=O)[C@H](C)N(C)C(=O)C[C@@H](C(=O)N2CCCCC2)NC(=O)[C@H](CC(C)C)N(C)C1=O [DP-479] ([NMeA][NMeL]TF[Sar]A[NMeV][NMeL]L[NMeL]D-Piperidide; lactam N-11) | 46 | 183 | – | – |
| CC[C@H](C)[C@@H]1NC(=O)[C@H](C)N(C)C(=O)[C@@H](C)N(C)C(=O)C[C@@H](C(=O)N2CCCCC2)NC(=O)[C@H](CC(C)C)N(C)C(=O)[C@H](C)N(C)C(=O)[C@H](Cc2ccccc2)N(C)C(=O)[C@H]([C@@H](C)O)NC(=O)[C@H](Cc2ccccc2)N(C)C(=O)[C@H](CC(C)C)N(C)C1=O [DP-51] ([dNMeA][NMeA]I[NMeL][NMeF]T[NMeF][NMeA][NMeL]D-Piperidide; lactam N-10) | – | – | 34 | 96 |
| CC[C@H](C)[C@@H]1NC(=O)[C@H](Cc2ccccc2)N(C)C(=O)[C@H](CC(C)C)N(C)C(=O)[C@H](Cc2ccccc2)NC(=O)[C@H](C)N(C)C(=O)[C@H]([C@@H](C)O)NC(=O)[C@@H](C)N(C)C(=O)C[C@@H](C(=O)N2CCCCC2)NC(=O)[C@H](CC(C)C)N(C)C(=O)[C@H](C(C)C)N(C)C1=O [DP-434] ([dNMeA]T[NMeA]F[NMeL][NMeF]I[NMeV][NMeL]D-Piperidide; lactam N-10) | 38 | 166 | – | – |
| CC[C@H](C)[C@@H]1NC(=O)[C@H](C)N(C)C(=O)[C@H]([C@@H](C)O)NC(=O)[C@H](C)N(C)C(=O)[C@H](C(C)C)N(C)C(=O)[C@H](Cc2ccccc2)NC(=O)CN(C)C(=O)C[C@@H](C(=O)N(C)[C@@H](Cc2ccccc2)C(=O)N[C@@H](C)C(=O)N2CCCCC2)NC(=O)[C@H](C)N(C)C(=O)[C@H](CC(C)C)N(C)C1=O [DP-195] ([Sar]F[NMeV][NMeA]T[NMeA]I[NMeL][NMeA]D[NMeF]A-Piperidide; lactam N-10) | 8 | 52 | – | – |
| CC(C)C[C@@H]1NC(=O)[C@H]([C@@H](C)O)NC(=O)[C@H](Cc2ccccc2)N(C)C(=O)[C@H](CC(C)C)N(C)C(=O)[C@H](Cc2ccccc2)N(C)C(=O)[C@H](C)N(C)C(=O)[C@H](C)N(C)C(=O)[C@H](CC(C)C)N(C)C(=O)[C@@H](C)NC(=O)C[C@@H](C(=O)N2CCCCC2)NC1=O [DP-169] ([dA][NMeL][NMeA][NMeA][NMeF][NMeL][NMeF]TLD-Piperidide; lactam N-10) | 36 | 43 | – | – |
| CC[C@H](C)[C@H](NC(=O)[C@@H]1CC(=O)N[C@@H](Cc2ccccc2)C(=O)N(C)[C@@H](CC(C)C)C(=O)N[C@@H](C)C(=O)N(C)[C@@H](CC(C)C)C(=O)N[C@@H](COC(C)(C)C)C(=O)N(C)[C@@H](CC(C)C)C(=O)N(C)[C@@H](CC(C)C)C(=O)N[C@@H]([C@@H](C)O)C(=O)N[C@@H](Cc2ccccc2)C(=O)N(C)[C@@H](Cc2ccccc2)C(=O)N(C)[C@@H](C)C(=O)N1)C(=O)N[C@H](C(=O)N1CCCCC1)[C@@H](C)CC [DP-953] (F[NMeL]A[NMeL]S(tBu)[NMeL][NMeL]TF[NMeF][NMeA]DII-Piperidide; lactam N-12) | 0.1 | 8 | – | – |
| CC(C)C[C@H]1C(=O)N(C)[C@@H](Cc2ccccc2)C(=O)N[C@H](C(=O)N2CCCCC2)CC(=O)N(C)[C@H](C)C(=O)N[C@@H]([C@@H](C)O)C(=O)N(C)[C@@H](C)C(=O)N(C)[C@@H](Cc2ccccc2)C(=O)N[C@@H](COC(C)(C)C)C(=O)NCC(=O)N1C [DP-270] ([dNMeA]T[NMeA][NMeF]S(tBu)G[NMeL][NMeF]D-Piperidide; lactam N-9) | 22 | 79 | – | – |
| CC(C)C[C@H](NC(=O)CN(C)C(=O)[C@@H]1CC(=O)N[C@H](C)C(=O)N[C@@H](C(C)C)C(=O)N(C)[C@@H](Cc2ccccc2)C(=O)N(C)[C@@H](CC(C)C)C(=O)N(C)[C@@H](C)C(=O)N[C@@H]([C@@H](C)O)C(=O)N[C@@H](Cc2ccccc2)C(=O)N1)C(=O)N1CCCCC1 [DP-571] ([dA]V[NMeF][NMeL][NMeA]TFD[Sar]L-Piperidide; lactam N-8) | 23 | 62 | – | – |
| CC[C@H](C)[C@@H]1NC(=O)[C@H](C)N(C)C(=O)[C@H](C)N(C)C(=O)[C@H]([C@@H](C)O)NC(=O)[C@H](CC(C)C)N(C)C(=O)[C@H](CC(C)C)NC(=O)[C@H](Cc2ccccc2)N(C)C(=O)[C@@H](C)NC(=O)C[C@@H](C(=O)N(C)[C@@H](Cc2ccccc2)C(=O)N[C@@H](C)C(=O)N2CCCCC2)NC(=O)[C@H](C(C)C)N(C)C(=O)[C@H](Cc2ccccc2)N(C)C1=O [DP-180] ([dA][NMeF]L[NMeL]T[NMeA][NMeA]I[NMeF][NMeV]D[NMeF]A-Piperidide; lactam N-11) | 23 | 35 | – | – |
| CC[C@H](C)[C@@H]1NC(=O)[C@H](C)N(C)C(=O)[C@H](Cc2ccccc2)N(C)C(=O)[C@H](C)N(C)C(=O)C[C@@H](C(=O)N(C)[C@@H](Cc2ccccc2)C(=O)N(C)[C@@H](Cc2ccccc2)C(=O)N[C@@H](C)C(=O)N2CCCCC2)NC(=O)[C@H](C)N(C)C(=O)[C@H](CC(C)C)N(C)C(=O)[C@H](C)N(C)C(=O)[C@H]([C@@H](C)O)NC(=O)[C@H](C)N(C)C1=O [DP-395] ([NMeA][NMeF][NMeA]I[NMeA]T[NMeA][NMeL][NMeA]D[NMeF][NMeF]A-Piperidide; lactam N-10) | 19 | 23 | – | – |
| CC(C)C[C@@H]1NC(=O)[C@H](C(C)C)N(C)C(=O)[C@H](CCc2ccccc2)NC(=O)CN(C)C(=O)[C@H]([C@@H](C)O)NC(=O)[C@H](C)N(C)C(=O)[C@H](CC(C)C)N(C)C(=O)[C@@H](C(C)C)NC(=O)C[C@@H](C(=O)N2CCCCC2)NC(=O)[C@H](C)NC(=O)[C@H](CC(C)C)N(C)C1=O [DP-736] ([dV][NMeL][NMeA]T[Sar][hPhe][NMeV]L[NMeL]AD-Piperidide; lactam N-11) | 27 | 47 | – | – |
| CC[C@H](C)[C@@H]1NC(=O)[C@H]([C@@H](C)O)NC(=O)[C@H](Cc2ccccc2)NC(=O)[C@H](CC(C)C)NC(=O)[C@@H](C)NC(=O)C[C@@H](C(=O)N2CCCCC2)NC(=O)[C@H](CC(C)C)NC(=O)[C@H](CC(C)C)N(C)C(=O)[C@H](CC(C)C)NC(=O)CNC(=O)[C@H](Cc2ccccc2)NC1=O [DP-321] ([dA]LFTIFGL[NMeL]LD-Piperidide; lactam N-11) | 6.2 | 19 | – | – |
| CC[C@H](C)[C@@H]1NC(=O)[C@H](Cc2ccccc2)N(C)C(=O)[C@H](CC(C)C)N(C)C(=O)[C@H](Cc2ccccc2)N(C)C(=O)[C@H]([C@@H](C)O)NC(=O)CCN(C)C(=O)C[C@@H](C(=O)N(C)[C@@H](Cc2ccccc2)C(=O)N[C@@H](C)C(=O)N2CCCCC2)NC(=O)[C@H](CC(C)C)N(C)C(=O)[C@H](C)N(C)C(=O)[C@H](CC(C)C)N(C)C1=O [DP-299] ([NMeβAla]T[NMeF][NMeL][NMeF]I[NMeL][NMeA][NMeL]D[NMeF]A-Piperidide; lactam N-10) | – | – | 5.3 | 56 |
